In US10294217B2, “Fluoroindole derivatives as muscarinic M1 receptor positive allosteric modulators” (Suven Life Sciences Limited, priority 2015, dated 2019):

Experiments:
[1] = Protein binding assay (HT dialysis), human matrices; assay type: in vitro ADME; details: Mean ± SEM
Description: (§1) Unbound fractions of new chemical entities in plasma, brain homogenate and liver microsomes were determined using high-throughput dialysis (HT dialysis). Briefly, dialysis membranes were soaked in deionized water for 20 minutes and then in deionized water with 30% ethanol for 15 minutes and finally in phosphate buffer until use. Membranes were rinsed in phosphate buffer before assembling. The membranes were layered between teflon bars of dialysis assembly. Stock solutions of test compounds were prepared at 10 mM in DMSO, diluted to 1 mM in acetonitrile and further diluted to 100 μM in mixture of water and acetonitrile (1:1 v/v). Human plasma (pool of 3) was prepared from human blood (3 donors) by centrifuging at 4000 rpm for 10 min at 4° C. Rat and dog blood were obtained on the day of the study and centrifuged to obtain plasma. Rat brains were isolated, cleaned and homogenized with 2 volumes of buffer (3 fold dilution). Liver microsomes were prepared at 0.5 mg/mL in phosphate buffer (100 mM, pH 7.4). The dialysate chambers were loaded with 150 μL of 100 mM phosphate buffer (pH 7.4) in triplicates. The matrix chambers were loaded with 150 μL of the plasma or brain homogenate or microsomal suspension spiked with test compounds at a final concentration of 1 μM. 50 μL of the sample was removed from both the chambers at 0 h. The plate was sealed and incubated at 37° C. for 6 h at 100 rpm. After 6 h, 50 μL of the sample was removed from both the chambers. Equal volumes of buffer or human plasma/microsomal suspension were added to the plasma/microsomal and buffer samples respectively to create identical sample matrices for analysis. The samples were precipitated with 150 μL of acetonitrile containing fluoxetine as an internal standard. All the samples were centrifuged at 10000 rpm for 10 minutes at 4° C.

[2] = Protein binding assay (HT dialysis), rat matrices; assay type: in vitro ADME; details: Mean ± SEM
Description: as §1

[3] = Rodent brain penetration study; assay type: in vivo, Male Wistar rats; details: male, Wistar, rat, oral; 3 mg/kg, p.o.; brain-plasma ratio; read-out: Single dose Rat Brain Penetration (Cb/Cp)
Description: WO2015044072A1 patent application discloses indole derivatives as M1 PAM compounds. […] This makes these compounds less ideal for the treatment of CNS disorders.
Rodent Brain Penetration Study
Male Wistar rats (260±40 grams) were used as experimental animals. Three animals were housed in each cage. Animals were given water and food ad libitum throughout the experiment and maintained on a 12 hours light/dark cycle.
Brain penetration was determined in discrete manner in rats. One day prior to dosing day, male Wistar rats were acclimatized and randomly grouped according to their weight. At each time point (0.5, 1 and 2 hours) n=3 animals were used.
The test compounds were suitably preformulated and administered orally at (free base equivalent) 3 mg/kg. Blood samples were removed via cardiac puncture by using isoflurane anesthesia. The animals were sacrificed to collect brain tissue. Plasma was separated and brain samples were homogenized and stored frozen at ˜20° C. until analysis. The concentrations of the test compounds in plasma and brain were determined using LC-MS/MS method.
The test compounds were quantified in plasma and brain homogenate by qualified LC-MS/MS method using suitable extraction technique. The test compounds were quantified in the calibration range of 1-500 ng/mL in plasma and brain homogenate. Study samples were analyzed using calibration samples in the batch and quality control samples spread across the batch.

[4] = Rodent pharmacokinetic study; assay type: in vivo, Male Wistar rats; details: male, Wistar; for AUC(0-t) / half-life / Cmax: rat plasma; for clearance / bioavailability: plasma, rat; for bioavailability: oral 3 mg/kg vs i.v. 1 mg/kg, read-out: % F (Bioavailability)
Description: Rodent Pharmacokinetic Study
Male Wistar rats (260±50 grams) were used as experimental animals. Animals were housed individually in polypropylene cage. Two days prior to study, male Wistar rats were anesthetized with isoflurane for surgical placement of jugular vein catheter. Rats were randomly divided for oral (3 mg/kg) and intravenous (i.v.) (1 mg/kg) dosing (n=3/group) and fasted overnight before oral dosing (p.o.). However, rats allocated to intravenous dosing food and water was provided ad libitum.
At pre-determined point, blood was collected through jugular vein and replenished with an equivalent volume of normal saline. Collected blood was transferred into a labeled eppendorf tube containing 10 μL of heparin as an anticoagulant. Typically blood samples were collected at following time points: 0.08, 0.25, 0.5, 1, 2, 4, 6, 8, and 24 hours post dose. Blood was centrifuged at 4000 rpm for 10 minutes. Plasma was separated and stored frozen at −80° C. until analysis. The concentrations of the test compounds were quantified in plasma by qualified LC-MS/MS method using suitable extraction technique. The test compounds were quantified in the calibration range around 1-1000 ng/mL in plasma. Study samples were analyzed using calibration samples in the batch and quality control samples spread across the batch.
Pharmacokinetic parameters Cmax, AUCt, T1/2, Clearance, and Bioavailability (% F) were calculated by non-compartmental model using standard non-compartmental model by using Phoenix WinNonlin 6.0.2 or 6.0.3 version Software package and the results are tabulated in table 3.

[5] = Protein binding assay (HT dialysis), dog matrices; assay type: in vitro ADME; details: Mean ± SEM
Description: as §1

[6] = pH 7.4, Human liver microsomes 0.5 mg/mL, n = 3, read-out: Fu Microsomes
[7] = pH 7.4, Human plasma, 37° C., n = 3, read-out: Fu Plasma
[8] = pH 7.4, Rat brain homogenate, 37° C., n = 3, read-out: Fu Brain
[9] = pH 7.4, Rat liver microsomes 0.5 mg/mL, n = 3, read-out: Fu Microsomes
[10] = pH 7.4, Rat plasma, 37° C., n = 3, read-out: Fu Plasma
[11] = pH 7.4, Dog liver microsomes 0.5 mg/mL, n = 3, read-out: Fu Microsomes
[12] = pH 7.4, Dog plasma, 37° C., n = 3, read-out: Fu Plasma

Row | Compound | fraction unbound at 6 h, 1 μM [1, 6] | fraction unbound at 6 h, 1 μM [1, 7] | fraction unbound at 6 h, 1 μM [2, 8] | fraction unbound at 6 h, 1 μM [2, 9] | fraction unbound at 6 h, 1 μM [2, 10] | Kp [3] | AUC(0-t) ([4]; iv, 1 mg/kg) | half-life ([4]; iv, 1 mg/kg) | clearance ([4]; iv, 1 mg/kg) | bioavailability [4] | AUC(0-t) ([4]; oral, 3 mg/kg) | Cmax ([4]; oral, 3 mg/kg) | half-life ([4]; oral, 3 mg/kg) | fraction unbound at 6 h, 1 μM [5, 11] | fraction unbound at 6 h, 1 μM [5, 12]
1 | Cl.O=C(N[C@H]1CCNC[C@H]1F)c1cn(Cc2ccnc(F)c2)c2c(F)ccc(F)c12 (single isomer, unassigned; isomer-i) [Example 22, Cis-N-(3-Fluoropiperidin-4-yl)-1-(2-fluoropyridin-4-ylmethyl)-4,7-difluoro-1H-indole-3-carboxamide hydrochloride (Isomer-I)] | 0.788 ± 0.031 | 0.309 ± 0.008 | 0.067 ± 0.002 | 0.902 ± 0.006 | 0.315 ± 0.03 | 0.46 ± 0.11 | 908 ± 198 ng·h/mL | 7.6 ± 1.7 h | 17.1 ± 3.3 mL/min/kg | 60 ± 5% | 1650 ± 147 ng·h/mL | 207 ± 76 ng/mL | 4.8 ± 2.8 h | 0.866 ± 0.034 | 0.31 ± 0.01
2 | Cn1cc(Cn2cc(C(=O)N[C@H]3CCCC[C@@H]3O)c3c(F)cccc32)cn1 [Example 1, N-[(1S,2S)-2-Hydroxycyclohexyl]-1-(1-methyl-1H-pyrazol-4-ylmethyl)-4-fluoro-1H-indole-3-carboxamide] |  | 0.197 ± 0.01 | 0.166 ± 0.01 | 0.836 ± 0.04 | 0.267 ± 0.03 | 0.3 ± 0.05 | 2250 ± 190 ng·h/mL | 3 ± 0.3 h | 7.3 ± 0.4 mL/min/kg | 76 ± 7% | 5160 ± 464 ng·h/mL | 1190 ± 81 ng/mL | 2.9 ± 0.2 h | 0.982 ± 0.01 | 0.217 ± 0.21
3 | O=C(N[C@H]1CCCC[C@@H]1O)c1cn(Cc2ccnc(Cl)c2)c2cccc(F)c12 [Example 2, N-[(1S,2S)-2-Hydroxycyclohexyl]-1-(2-chloropyridin-4-ylmethyl)-4-fluoro-1H-indole-3-carboxamide] | 0.459 ± 0.046 | 0.04 ± 0.002 | 0.015 ± 0.001 | 0.679 ± 0.081 | 0.068 ± 0.002 | 0.95 ± 0.17 | 1150 ± 245 ng·h/mL | 1.9 ± 0.4 h | 16.1 ± 2.8 mL/min/kg | 63 ± 17% | 2160 ± 599 ng·h/mL | 632 ± 167 ng/mL | 1.9 ± 0.2 h | 0.576 ± 0.079 | 0.087 ± 0.008
4 | Cn1cc(Cn2cc(C(=O)N[C@H]3CCCC[C@@H]3O)c3c(F)ccc(F)c32)cn1 [Example 5, N-[(1S,2S)-2-Hydroxycyclohexyl]-1-(1-methyl-1H-pyrazol-4-ylmethyl)-4,7-difluoro-1H-indole-3-carboxamide] | 0.899 ± 0.03 | 0.077 ± 0.01 | 0.128 ± 0.01 | 0.779 ± 0.01 | 0.21 ± 0.01 | 0.5 ± 0.04 | 2920 ± 1430 ng·h/mL | 4 ± 1.7 h | 7.1 ± 4.3 mL/min/kg | 90 ± 33% | 7870 ± 2860 ng·h/mL | 2680 ± 664 ng/mL | 3.3 ± 0.3 h | 0.746 ± 0.004 | 0.163 ± 0.02
5 | O=C(N[C@H]1CCCC[C@@H]1O)c1cn(Cc2ccnc(F)c2)c2cccc(F)c12 [Example 7, N-[(1S,2S)-2-Hydroxycyclohexyl]-1-(2-fluoropyridin-4-ylmethyl)-4-fluoro-1H-indole-3-carboxamide] | 0.7 ± 0.03 | 0.1 ± 0.004 | 0.06 ± 0.004 | 0.8 ± 0.04 | 0.2 ± 0.02 | 0.61 ± 0.01 | 1120 ± 119 ng·h/mL | 2 ± 0.4 h | 14.2 ± 2 mL/min/kg | 67 ± 14% | 2260 ± 471 ng·h/mL | 783 ± 254 ng/mL | 1.4 ± 0.2 h | 0.6 ± 0.03 | 0.2 ± 0.01
6 | O=C(N[C@H]1CCCC[C@@H]1O)c1cn(Cc2ccnc(F)c2)c2c(F)ccc(F)c12 [Example 8, N-[(1S,2S)-2-Hydroxycyclohexyl]-1-(2-fluoropyridin-4-ylmethyl)-4,7-difluoro-1H-indole-3-carboxamide] | 0.626 ± 0.037 | 0.079 ± 0.006 | 0.0348 ± 0.0001 | 0.606 ± 0.008 | 0.089 ± 0.01 | 1.1 ± 0.1 | 1830 ± 562 ng·h/mL | 1.8 ± 0.3 h | 9 ± 3 mL/min/kg | 45 ± 15% | 2500 ± 842 ng·h/mL | 578 ± 170 ng/mL | 2.3 ± 1.8 h | 0.679 ± 0.066 | 0.064 ± 0.01
